Measured values reported in patent US11345666B2, “Phenyl and pyridinyl substituted imidazoles as modulators of RORγT” (Janssen Pharmaceutica NV, priority 2018, dated 2022).
pIC50, pKd: −log10 of the molar value.

Experiments:
[1] = biological target: human RORγt ligand binding domain (RORγt LBD) (Homo sapiens (Human), UniProt P51449); test: RORγt ThermoFluor assay
How it was run: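 Thermal shift of His-tagged human RORγt LBD (0.065 mg/mL) with 60 μM 1,8-ANS in 100 mM Hepes pH 7.0, 10 mM NaCl, 2.5 mM GSH, 0.002% Tween-20, heated at 1° C./min. Compounds in 1:2 series from a 10 mM DMSO stock; KD estimated from ΔTm using protein unfolding thermodynamics.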

[2] = biological target: full-length human RORγt (Homo sapiens (Human), UniProt P51449); test: RORγt (full-length human) reporter assay, conditions A or B; assay type: cell-based; conditions: for inhibition at 0.22 µM: 0.22 μM compound concentration (******); for pIC50: HEK293T cells, read-out: RORγt (FL) Reporter Assay A or B, IC50; for inhibition at 3 µM: 3 μM compound concentration (*); for inhibition at 6 µM: read-out: RORγt (FL) Reporter Assay A or B, % inhibition @ 6 μM, 6 μM compound concentration; for inhibition at 2 µM: 2 μM compound concentration (**); for inhibition at 0.67 µM: 0.67 μM compound concentration (****)
Chain of full-length human RORγt (P51449 other isoform, or with tags, fused parts or gaps): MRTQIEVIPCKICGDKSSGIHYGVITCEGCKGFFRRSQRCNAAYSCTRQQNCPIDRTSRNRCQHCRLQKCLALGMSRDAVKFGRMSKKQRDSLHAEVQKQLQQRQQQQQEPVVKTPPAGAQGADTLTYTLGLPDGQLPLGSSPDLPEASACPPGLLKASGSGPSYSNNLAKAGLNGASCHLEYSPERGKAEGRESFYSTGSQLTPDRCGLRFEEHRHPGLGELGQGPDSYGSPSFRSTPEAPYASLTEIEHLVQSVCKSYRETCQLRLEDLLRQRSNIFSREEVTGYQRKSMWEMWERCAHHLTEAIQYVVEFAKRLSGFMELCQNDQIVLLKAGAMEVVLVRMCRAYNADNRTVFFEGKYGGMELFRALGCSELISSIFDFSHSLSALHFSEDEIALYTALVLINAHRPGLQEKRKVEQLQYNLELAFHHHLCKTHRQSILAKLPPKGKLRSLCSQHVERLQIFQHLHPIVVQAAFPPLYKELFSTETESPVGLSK
How it was run: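 HEK293T cells transiently co-transfected (PEI) with GAL4-DBD–RORγt, GAL4-firefly luciferase and CMV-Renilla reporters; condition A 35,000 cells/well, 170.5 ng DNA/well; condition B 8750 cells/well, 42.6 ng DNA/well.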

[3] = read-out: RORγt (FL) Reporter Assay A or B, % inhibition

Chain of human RORγt ligand binding domain (RORγt LBD) (P51449 other isoform, or with tags, fused parts or gaps): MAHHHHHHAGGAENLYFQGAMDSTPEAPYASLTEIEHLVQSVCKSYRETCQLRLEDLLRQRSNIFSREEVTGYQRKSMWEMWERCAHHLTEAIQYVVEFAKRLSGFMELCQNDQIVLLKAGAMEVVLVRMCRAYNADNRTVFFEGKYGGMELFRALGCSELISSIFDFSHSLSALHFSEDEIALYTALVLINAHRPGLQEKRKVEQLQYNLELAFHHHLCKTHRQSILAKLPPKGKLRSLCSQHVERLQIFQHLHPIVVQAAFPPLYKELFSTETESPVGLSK

pKd [1] | inhibition at 0.22 µM [2, 3] [%] | pIC50 [2] | inhibition at 3 µM [2, 3] [%] | inhibition at 6 µM [2] [%] | inhibition at 1 µM ([2]; 1 μM compound concentration (***), read-out: RORγt (FL) Reporter Assay A or B, % inhibition) [%] | inhibition at 2 µM [2, 3] [%] | inhibition at 0.67 µM [2, 3] [%] | SMILES
7.26 | 40 | 6.77 |  |  |  |  |  | CCc1nc(C(=O)NC[C@]2(O)CC[C@@H](S(C)(=O)=O)CC2)c(C)n1-c1ccc(CC(C(F)(F)F)C(F)(F)F)c(F)c1 [Example 106, 2-Ethyl-1-(3-fluoro-4-(3,3,3-trifluoro-2-(trifluoromethyl)propyl)phenyl)-N-(((1s,4s)-1-hydroxy-4-(methylsulfonyl)cyclohexyl)methyl)-5-methyl-1H-imidazole-4-carboxamide]
7.47 |  | 7.04 | 116 |  |  |  |  | CCc1nc(C(=O)NC[C@H]2CC[C@H](S(C)(=O)=O)CC2)c(Cl)n1-c1ncc(CC(C)(C)C(F)(F)F)cc1C [Example 74, 5-Chloro-2-ethyl-1-(3-methyl-5-(3,3,3-trifluoro-2,2-dimethylpropyl)pyridin-2-yl)-N-(((1r,4r)-4-(methylsulfonyl)cyclohexyl)methyl)-1H-imidazole-4-carboxamide]
8.09 | 63 | 7.64 |  |  |  |  |  | CCc1nc(C(=O)NC[C@H]2CC[C@H](S(C)(=O)=O)CC2)c(Cl)n1-c1c(F)cc(CC(C)C(F)(F)F)cc1F (stereo partly drawn) [Example 85, 5-Chloro-1-(2,6-difluoro-4-(3,3,3-trifluoro-2-methylpropyl)phenyl)-2-ethyl-N-(((1r,4r)-4-(methylsulfonyl)cyclohexyl)methyl)-1H-imidazole-4-carboxamide]
8.40 | 65 | 7.74 |  |  |  |  |  | CCc1nc(C(=O)NC[C@H]2CC[C@H](S(C)(=O)=O)CC2)c(Cl)n1-c1ccc(CC(C)(C)C(F)(F)F)cc1F [Example 101, 5-Chloro-2-ethyl-1-(2-fluoro-4-(3,3,3-trifluoro-2,2-dimethylpropyl)phenyl)-N-(((1r,4r)-4-(methylsulfonyl)cyclohexyl)methyl)-1H-imidazole-4-carboxamide]
7.08 |  | 6.43 |  | 101 |  |  |  | CCc1nc(C(=O)NC[C@]2(O)CC[C@@H](S(C)(=O)=O)CC2)c(C#N)n1-c1ccc(CCC(F)(F)F)cc1OC(F)F [Example 25, 5-Cyano-1-(2-(difluoromethoxy)-4-(3,3,3-trifluoropropyl)phenyl)-2-ethyl-N-(((1s,4s)-1-hydroxy-4-(methylsulfonyl)cyclohexyl)methyl)-1H-imidazole-4-carboxamide]
7.62 |  | 7.27 |  | 96 |  |  |  | CCc1nc(C(=O)NC[C@H]2CC[C@H](S(C)(=O)=O)CC2)c(C#N)n1-c1ccc(CCC(F)(F)F)cc1OC(F)F [Example 26, 5-Cyano-1-(2-(difluoromethoxy)-4-(3,3,3-trifluoropropyl)phenyl)-2-ethyl-N-(((1r,4r)-4-(methylsulfonyl)cyclohexyl)methyl)-1H-imidazole-4-carboxamide]
7.47 |  | 6.72 | 86 |  |  |  |  | CCc1nc(C(=O)NC[C@]2(O)CC[C@@H](S(C)(=O)=O)C[C@H]2O)c(Cl)n1-c1ncc(CC(C)(C)C(F)(F)F)cc1OC(F)F (stereo in doubt) [Example 60, 5-Chloro-1-(3-(difluoromethoxy)-5-(3,3,3-trifluoro-2,2-dimethylpropyl)pyridin-2-yl)-N-(((1R*,2R*,4R*)-1,2-dihydroxy-4-(methylsulfonyl)cyclohexyl)methyl)-2-ethyl-1H-imidazole-4-carboxamide]
8.40 | 99 | 7.80 |  |  |  |  |  | CCc1nc(C(=O)NC[C@H]2CC[C@H](S(C)(=O)=O)CC2)c(Cl)n1-c1ccc(CC(C(F)(F)F)C(F)(F)F)cc1F [Example 99, 5-Chloro-2-ethyl-1-(2-fluoro-4-(3,3,3-trifluoro-2-(trifluoromethyl)propyl)phenyl)-N-(((1r,4r)-4-(methylsulfonyl)cyclohexyl)methyl)-1H-imidazole-4-carboxamide]
6.72 |  | 6.14 |  | 96 |  |  |  | CCc1nc(C(=O)NC[C@H]2CC[C@H](S(C)(=O)=O)CC2)c(C#N)n1-c1ncc(CCC(F)(F)F)cc1OC [Example 119, 5-Cyano-2-ethyl-1-(3-methoxy-5-(3,3,3-trifluoropropyl)pyridin-2-yl)-N-(((1r,4r)-4-(methylsulfonyl)cyclohexyl)methyl)-1H-imidazole-4-carboxamide]
7.96 |  | 7.46 |  |  | 83 |  |  | Cc1nc(C(=O)NC[C@]2(O)CC[C@@H](S(C)(=O)=O)CC2)c(C#N)n1-c1ccc(CC(C)(C)C(F)(F)F)cc1OC(F)F [Example 54, 5-Cyano-1-(2-(difluoromethoxy)-4-(3,3,3-trifluoro-2,2-dimethylpropyl)phenyl)-N-(((1s,4s)-1-hydroxy-4-(methylsulfonyl)cyclohexyl)methyl)-2-methyl-1H-imidazole-4-carboxamide]
7.70 |  | 7.11 | 101 |  |  |  |  | CCc1nc(C(=O)NC[C@H]2CC[C@H](S(C)(=O)=O)CC2)c(C)n1-c1ncc(CC(C(F)(F)F)C(F)(F)F)cc1OC(F)F [Example 77, 1-(3-(Difluoromethoxy)-5-(3,3,3-trifluoro-2-(trifluoromethyl)propyl)pyridin-2-yl)-2-ethyl-5-methyl-N-(((1r,4r)-4-(methylsulfonyl)cyclohexyl)methyl)-1H-imidazole-4-carboxamide]
6.52 |  | 5.77 |  | 76 |  |  |  | CCc1nc(C(=O)NC[C@]2(C#N)CC[C@@H](S(C)(=O)=O)CC2)c(C#N)n1-c1ncc(CCC(F)(F)F)cc1OC [Example 121, 5-Cyano-N-(((1s*,4s*)-1-cyano-4-(methylsulfonyl)cyclohexyl)methyl)-2-ethyl-1-(3-methoxy-5-(3,3,3-trifluoropropyl)pyridin-2-yl)-1H-imidazole-4-carboxamide]
7.85 |  | 7.11 |  |  |  | 101 |  | [2H]C([2H])([2H])Oc1cc(CC(C)(C)C(F)(F)F)ccc1-n1c(CC)nc(C(=O)NC[C@]2(C#N)CC[C@@H](S(C)(=O)=O)CC2)c1F [Example 31, N-(((1s*,4s*)-1-Cyano-4-(methylsulfonyl)cyclohexyl)methyl)-2-ethyl-5-fluoro-1-(2-(methoxy-d3)-4-(3,3,3-trifluoro-2,2-dimethylpropyl)phenyl)-1H-imidazole-4-carboxamide]
7.92 |  | 7.32 |  |  |  | 101 |  | CCc1nc(C(=O)NC[C@H]2CC[C@H](S(C)(=O)=O)CC2)c(C#N)n1-c1ncc(CC(C)(C)C(F)(F)F)cc1OC [Example 122, 5-Cyano-2-ethyl-1-(3-methoxy-5-(3,3,3-trifluoro-2,2-dimethylpropyl)pyridin-2-yl)-N-(((1r,4r)-4-(methylsulfonyl)cyclohexyl)methyl)-1H-imidazole-4-carboxamide]
8.32 |  | 7.82 |  |  |  |  | 94 | [2H]C([2H])([2H])Oc1cc(CC(C)(C)C(F)(F)F)ccc1-n1c(CC)nc(C(=O)NC[C@H]2CC[C@H](S(C)(=O)=O)CC2)c1F [Example 33, 2-Ethyl-5-fluoro-1-(2-(methoxy-d3)-4-(3,3,3-trifluoro-2,2-dimethylpropyl)phenyl)-N-(((1r,4r)-4-(methylsulfonyl)cyclohexyl)methyl)-1H-imidazole-4-carboxamide]
9.70 |  | 7.80 |  |  |  |  | 66 | CCc1nc(C(=O)NC[C@H]2CC[C@H](S(C)(=O)=O)CC2)c(Cl)n1-c1ccc(CC(C)C)cc1OC [Example 89, 5-Chloro-2-ethyl-1-(4-isobutyl-2-methoxyphenyl)-N-(((1r,4r)-4-(methylsulfonyl)cyclohexyl)methyl)-1H-imidazole-4-carboxamide]
6.60 |  | 6.31 |  |  |  | 47 |  | CCc1nc(C(=O)NC[C@H]2CC[C@H](S(C)(=O)=O)CC2)c(C(N)=O)n1-c1ccc(CCC(F)(F)F)cc1F [Example 94, 2-Ethyl-1-(2-fluoro-4-(3,3,3-trifluoropropyl)phenyl)-N^4-(((1r,4r)-4-(methylsulfonyl)cyclohexyl)methyl)-1H-imidazole-4,5-dicarboxamide]
7.12 |  | 6.40 |  |  |  | 74 |  | CCc1nc(C(=O)NC[C@]2(O)CC[C@@H](S(C)(=O)=O)CC2)cn1-c1ccc(C[C@@H](C)C(F)(F)F)cc1OC (single isomer, unassigned) [Example 17, 2-Ethyl-N-(((1s,4S)-1-hydroxy-4-(methylsulfonyl)cyclohexyl)methyl)-1-(2-methoxy-4-((R*)-3,3,3-trifluoro-2-methylpropyl)phenyl)-1H-imidazole-4-carboxamide]
7.85 |  | 7.66 |  |  |  |  | 53 | CCc1nc(C(=O)NC[C@H]2CC[C@H](S(C)(=O)=O)CC2)c(Cl)n1-c1ccc(CCCC(F)(F)F)cc1F [Example 97, 5-Chloro-2-ethyl-1-(2-fluoro-4-(4,4,4-trifluorobutyl)phenyl)-N-(((1r,4r)-4-(methylsulfonyl)cyclohexyl)methyl)-1H-imidazole-4-carboxamide]
